Patent US6737383B1, “Herbicidal oxadiazolidines” (priority 1999, dated 2004)

Legend:
[1] = tested on: bedstraw; assay: Test B pre/postemergence bedstraw; format: in vivo, Galium aparine; details: for Plant response rating, Bedstraw: Postemergence
How it was run: (§1)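 Test chemicals in a non-phytotoxic solvent mixture with surfactant were sprayed preemergence onto planted seeds and postemergence onto plants 2 to 18 cm tall (1- to 4-leaf stage). After twelve to sixteen days in a greenhouse, injury was visually rated against untreated controls from 0 (no effect) to 10 (complete control).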

[2] = tested on: velvetleaf; assay: Test B pre/postemergence velvetleaf; format: in vivo, Abutilon theophrasti; details: for Velvetleaf plant response rating: scale of 0 to 10 where 0 is no effect and 10 is complete control
How it was run: as §1

[3] = tested on: pigweed; assay: Test B pre/postemergence pigweed; format: in vivo, Amaranthus retroflexus; details: for Redroot pigweed plant response rating: scale of 0 to 10 where 0 is no effect and 10 is complete control
How it was run: as §1

[4] = tested on: bamyardgrass; assay: Test B flood test barnyardgrass; format: in vivo, Echinochloa crus-galli
How it was run: (§2)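 Read-out is a visual response score from 0 (no effect) to 10 (complete control), assigned by comparison with untreated controls. Treatment was applied at the 2-leaf stage, and plants stayed in the greenhouse for twelve to sixteen days before scoring.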

[5] = tested on: purple nutsedge; assay: Test B pre/postemergence purple nutsedge; format: in vivo, Cyperus rotundus; details: for Nutsedge plant response rating: scale of 0 to 10 where 0 is no effect and 10 is complete control
How it was run: as §1

[6] = tested on: surinam grass; assay: Test B pre/postemergence surinam grass; format: in vivo, Brachiaria decumbens
How it was run: as §1

[7] = tested on: rice; assay: Test B flood test rice; format: in vivo, Oryza sativa
How it was run: as §2

[8] = tested on: blackgrass; assay: Test B pre/postemergence blackgrass; format: in vivo, Alopecurus myosuroides
How it was run: as §1

[9] = tested on: soybean; assay: Test B pre/postemergence soybean; format: in vivo, Glycine max; details: for Soybean plant response rating: scale of 0 to 10 where 0 is no effect and 10 is complete control
How it was run: as §1

[10] = tested on: corn; assay: Test B pre/postemergence corn; format: in vivo, Zea mays; details: for Corn plant response rating: scale of 0 to 10 where 0 is no effect and 10 is complete control
How it was run: as §1

[11] = tested on: rape; assay: Test B pre/postemergence rape; format: in vivo, Brassica napus; details: for Rape plant response rating: scale of 0 to 10 where 0 is no effect and 10 is complete control
How it was run: as §1

[12] = tested on: morningglory; assay: Test B pre/postemergence morningglory; format: in vivo, Ipomoea hederacea; details: for Morningglory plant response rating: scale of 0 to 10 where 0 is no effect and 10 is complete control
How it was run: as §1

[13] = tested on: cocklebur; assay: Test B pre/postemergence cocklebur; format: in vivo, Xanthium strumarium; details: for Cocklebur plant response rating: scale of 0 to 10 where 0 is no effect and 10 is complete control
How it was run: as §1

[14] = tested on: sugar beet; assay: Test B pre/postemergence sugar beet; format: in vivo, Beta vulgaris; details: for Sugarbeets plant response rating: scale of 0 to 10 where 0 is no effect and 10 is complete control
How it was run: as §1

[15] = tested on: wild oat; assay: Test B pre/postemergence wild oat; format: in vivo, Avena fatua; details: for Wild oats plant response rating: scale of 0 to 10 where 0 is no effect and 10 is complete control
How it was run: as §1

[16] = tested on: smallflower flatsedge; assay: Test B flood test smallflower flatsedge; format: in vivo, Cyperus difformis
How it was run: as §2

[17] = Preemergence, Rate 500 g/ha, scale of 0 to 10 where 0 is no effect and 10 is complete control
[18] = Postemergence, Rate 125 g/ha, scale 0 to 10, 0 is no effect, 10 is complete control
[19] = Preemergence, Rate 62 g/ha, scale 0 to 10 (0 no effect, 10 complete control)
[20] = Rate 500 g/ha, Postemergence, scale 0 to 10, 0 no effect, 10 complete control
[21] = Postemergence (flood test), Rate 125 g/ha, scale 0 to 10, 0 is no effect, 10 is complete control
[22] = Rate 62 g/ha, Postemergence (flood test species), scale of 0 to 10 where 0 is no effect and 10 is complete control
[23] = Rate 500 g/ha, listed under Postemergence (flood test species), scale 0 to 10, 0 no effect, 10 complete control
[24] = Preemergence, Rate 250 g/ha, scale of 0 to 10 where 0 is no effect and 10 is complete control
[25] = Rate 62 g/ha, Postemergence, scale of 0 to 10 where 0 is no effect and 10 is complete control
[26] = Rate 250 g/ha, Postemergence, scale of 0 to 10 where 0 is no effect and 10 is complete control

SMILES: CC(C)N(C(=O)n1oc(=O)n(C2CCC2)c1=O)c1ccccc1 [Compound 348]
- Plant response rating, Bedstraw ([1]; Rate 125 g/ha, scale 0 to 10, 0 is no effect, 10 is complete control): 2
- Bedstraw plant response rating [1, 17]: 9
- Plant response rating, Bedstraw ([1]; Rate 250 g/ha, scale of 0 to 10 where 0 is no effect and 10 is complete control): 4
- Plant response rating, Bedstraw ([1]; Rate 500 g/ha, scale 0 to 10, 0 no effect, 10 complete control): 7
- Plant response rating, Velvetleaf [2, 18]: 2
- Plant response rating, Velvetleaf [2, 19]: 3
- Velvetleaf plant response rating (0 to 10 scale) ([2]; Preemergence, Rate 125 g/ha): 3
- Velvetleaf plant response rating ([2]; Preemergence, Rate 250 g/ha): 7
- Velvetleaf plant response rating ([2]; Preemergence, Rate 500 g/ha): 7
- Velvetleaf plant response rating ([2]; Rate 62 g/ha, Postemergence): 2
- Plant response rating, Velvetleaf [2, 20]: 6
- Plant response rating, Redroot pigweed [3, 18]: 0
- Plant response rating, Redroot pigweed [3, 19]: 0
- Redroot pigweed plant response rating (0 to 10 scale) ([3]; Preemergence, Rate 125 g/ha): 0
- Redroot pigweed plant response rating ([3]; Preemergence, Rate 250 g/ha): 10
- Redroot pigweed plant response rating ([3]; Preemergence, Rate 500 g/ha): 10
- Redroot pigweed plant response rating ([3]; Rate 62 g/ha, Postemergence): 0
- Plant response rating, Redroot pigweed [3, 20]: 5
- Plant response rating, Barnyardgrass [4, 21]: 2
- Barnyardgrass plant response rating [4, 22]: 2
- Plant response rating, Barnyardgrass ([4]; Rate 250 g/ha, Postemergence (flood test species), scale of 0 to 10 where 0 is no effect and 10 is complete control): 3
- Plant response rating, Barnyardgrass [4, 23]: 7
- Plant response rating, Nutsedge [5, 18]: 0
- Plant response rating, Nutsedge [5, 19]: 0
- Nutsedge plant response rating (0 to 10 scale) ([5]; Preemergence, Rate 125 g/ha): 0
- Nutsedge plant response rating ([5]; Preemergence, Rate 250 g/ha): 0
- Nutsedge plant response rating ([5]; Preemergence, Rate 500 g/ha): 0
- Nutsedge plant response rating ([5]; Rate 62 g/ha, Postemergence): 0
- Plant response rating, Nutsedge [5, 20]: 6
- Plant response rating, B. signalgrass [6, 18]: 1
- B. signalgrass plant response rating (0 to 10 scale, 0 is no effect, 10 is complete control) ([6]; Preemergence, Rate 125 g/ha): 3
- B. signalgrass plant response rating [6, 24]: 5
- B. signalgrass plant response rating [6, 17]: 7
- B. signalgrass plant response rating [6, 25]: 0
- Plant response rating, B. signalgrass [6, 26]: 4
- Plant response rating, B. signalgrass [6, 20]: 7
- Plant response rating, Rice [7, 21]: 0
- Rice plant response rating [7, 22]: 0
- Plant response rating, Rice [7, 23]: 0
- Plant response rating, Blackgrass [8, 18]: 3
- Plant response rating, Blackgrass [8, 19]: 4
- Blackgrass plant response rating (0 to 10 scale) ([8]; Preemergence, Rate 125 g/ha): 6
- Blackgrass plant response rating [8, 24]: 9
- Blackgrass plant response rating [8, 17]: 9
- Blackgrass plant response rating [8, 25]: 2
- Plant response rating, Blackgrass [8, 26]: 6
- Plant response rating, Blackgrass [8, 20]: 7
- Plant response rating, Soybean [9, 18]: 2
- Plant response rating, Soybean [9, 19]: 0
- Soybean plant response rating (0 to 10 scale) ([9]; Preemergence, Rate 125 g/ha): 0
- Soybean plant response rating ([9]; Preemergence, Rate 250 g/ha): 0
- Soybean plant response rating ([9]; Preemergence, Rate 500 g/ha): 0
- Soybean plant response rating ([9]; Rate 62 g/ha, Postemergence): 1
- Plant response rating, Soybean [9, 20]: 4
- Plant response rating, Corn [10, 18]: 0
- Plant response rating, Corn [10, 19]: 0
- Corn plant response rating (0 to 10 scale) ([10]; Preemergence, Rate 125 g/ha): 2
- Corn plant response rating ([10]; Preemergence, Rate 250 g/ha): 2
- Corn plant response rating ([10]; Preemergence, Rate 500 g/ha): 9
- Corn plant response rating ([10]; Rate 62 g/ha, Postemergence): 0
- Plant response rating, Corn [10, 20]: 3
- Plant response rating, Rape [11, 18]: 0
- Plant response rating, Rape [11, 19]: 0
- Rape plant response rating (0 to 10 scale) ([11]; Preemergence, Rate 125 g/ha): 0
- Rape plant response rating ([11]; Preemergence, Rate 250 g/ha): 2
- Rape plant response rating ([11]; Preemergence, Rate 500 g/ha): 7
- Rape plant response rating ([11]; Rate 62 g/ha, Postemergence): 0
- Plant response rating, Rape [11, 20]: 5
- Plant response rating, Morningglory [12, 18]: 9
- Plant response rating, Morningglory [12, 19]: 0
- Morningglory plant response rating (0 to 10 scale) ([12]; Preemergence, Rate 125 g/ha): 0
- Morningglory plant response rating ([12]; Preemergence, Rate 250 g/ha): 0
- Morningglory plant response rating ([12]; Preemergence, Rate 500 g/ha): 0
- Morningglory plant response rating ([12]; Rate 62 g/ha, Postemergence): 2
- Plant response rating, Morningglory [12, 20]: 10
- Plant response rating, Cocklebur [13, 18]: 0
- Plant response rating, Cocklebur [13, 19]: 0
- Cocklebur plant response rating (0 to 10 scale) ([13]; Preemergence, Rate 125 g/ha): 0
- Cocklebur plant response rating ([13]; Preemergence, Rate 250 g/ha): 0
- Cocklebur plant response rating ([13]; Preemergence, Rate 500 g/ha): 0
- Cocklebur plant response rating ([13]; Rate 62 g/ha, Postemergence): 0
- Plant response rating, Cocklebur [13, 20]: 2
- Plant response rating, Sugarbeets [14, 18]: 0
- Plant response rating, Sugarbeets [14, 19]: 0
- Sugarbeets plant response rating (0 to 10 scale) ([14]; Preemergence, Rate 125 g/ha): 0
- Sugarbeets plant response rating ([14]; Preemergence, Rate 250 g/ha): 3
- Sugarbeets plant response rating ([14]; Preemergence, Rate 500 g/ha): 6
- Sugarbeets plant response rating ([14]; Rate 62 g/ha, Postemergence): 0
- Plant response rating, Sugarbeets [14, 20]: 3
- Plant response rating, Wild oats [15, 18]: 3
- Plant response rating, Wild oats [15, 19]: 3
- Wild oats plant response rating (0 to 10 scale) ([15]; Preemergence, Rate 125 g/ha): 4
- Wild oats plant response rating ([15]; Preemergence, Rate 250 g/ha): 8
- Wild oats plant response rating ([15]; Preemergence, Rate 500 g/ha): 10
- Wild oats plant response rating ([15]; Rate 62 g/ha, Postemergence): 2
- Plant response rating, Wild oats [15, 20]: 7
- Plant response rating, S. Flatsedge [16, 21]: 6
- S. Flatsedge plant response rating [16, 22]: 4
- Plant response rating, S. Flatsedge [16, 23]: 7
